Patent US8513292B2, “Compositions and methods for the treatment of cancer” (ArQule, Inc., priority 2007, dated 2013)
Where a SMILES comes first, the peptide text is derived from it. The star is where a group is joined. Cbz = O=C(OCc1ccccc1)*; CH2F = FC*

What was measured:
HT29 cells [1] = assay: MTS assay; format: cell-based; details: Homo sapiens, HT-29, compound for 24 hours, then drug-free medium for additional 48 hours, MTS readout
Procedure: HT29 cells were seeded in 96-well plates at 1,800 cells/well overnight in medium with 10% FBS. The next day, cells were treated with increasing concentrations of compounds for 24 hours at 37° C. After the treatments, the compound-containing medium was removed, cells were washed twice with PBS, and incubated in drug-free medium containing 10% FBS for an additional 48 hours. After addition of MTS and PMS for 4 hours at concentrations of 2 mg/mL and 0.92 mg/mL, respectively, the results were quantitated by spectrophotometry at λ=490 nm and IC50 for each compound was determined

[2] = biological target: T1, Recombinant unphosphorylated c-Met comprising residues 1038-1346 (Homo sapiens, UniProt P08581); assay: c-Met p33 kinase assay (33P-ATP, IGF-1 Rtide substrate); format: biochemical; details: 15 minutes preincubation, 100 μM ATP, 30 minutes reaction
T1 construct: The DNA fragment encoding the kinase domain (1038-1346) was inserted into Novagen vector pet28a; six-histidine tag (N); made in house; host or cells: E. coli BL21(DE3)RIL
Source text: cDNA of full-length c-Met purchased from Origen Technologies was used as template for PCR amplification. The DNA fragment encoding the kinase domain (1038-1346) was inserted into Novagen vector pet28a between Nco1 and Sal1 sites. The primers were designed to contain a six-histidine tag to the N-terminus. In order to express dephosphorylated c-Met kinase protein, a tyrosine phosphatase PTP1B (1-283) was sequentially ligated into the made construct between SalI and Nod sites. A second ribosome binding site was incorporated in the PTP1B primer after the SalI site. The N-terminal His-tagged proteins were expressed in Circlegrow broth (Q-Biogen). The transformed E. Coli cell line BL21(DE3)RIL (Stratagene) was cultured to OD=0.8 at 37° C. and induced with 0.3 mM of IPTG for overnight at 12° C. The co-expressed protein was purified by metal-chelation chromatography followed by anion and cation columns. In brief, 4 liters of cells were lysed by sonication in 140 ml buffer containing 20 mM MOPS pH=6.5, 200 mM NaCl, 7.5% glycerol, 0.1% Igepal, supplied with 1 mM PMSF. The supernatant was obtained by centrifugation at 50,000 g for 30 minutes and followed by incubation with 8 mL of Ni-NTA His Bind resin (Novagen) at 4° C. for one hour. A second step 50 mL wash buffer (with 100 mM NaCl and 5 mM imidazole) was applied after initial wash with the lysis buffer. Protein was eluted by 200 mM imidazole pH=8.5, 100 mM NaCl and 7.5% glycerol and directly cleared by passing 10 mL QFF column. The salt concentration and the pH value of the protein flow through were adjusted to 50 mM and 7.5 by dilution, and then loaded to 1 mL SP FF column. The protein was further gel-filtered in an equilibrium buffer of 20 mM TrisHCl pH=8.5, 150 mM NaCl, 7.5% glycerol and 2 mM DTT. The monomeric unphosphorylated c-Met protein was concentrated to 30 mg/mL for storage at −80° C.
Recombinant unphosphorylated c-Met comprising residues 1038-1346 (12.5 ng) was pre-incubated with increasing concentrations of compounds for 15 minutes at room temperature. […]

HT29 cells [3] = assay: Cell death by Annexin V-Fluos staining after siRNA transfection, high content imaging; format: cell-based; details: increasing concentrations of caspase inhibitor for 1 additional day after transfection
Procedure: Exponentially growing HT29 cells were plated in black 96-well plates at 5,000 cells/well overnight in medium with 10% FBS. The next day, cells were transiently transfected for 2 days using DharmaFECT 4 reagent with a pool of four met-specific 21-nucleotide RNA oligonucleotides forming a 19-bp duplex core with 2-nucleotide 3′ overhang in combination (Dharmacon, Inc., Lafayette, Colo.). Transfection of gapdh siRNA (Dharmacon, Inc.) and of a non-targeting siRNA under the same conditions was done in parallel as controls (Dharmacon, Inc.). Cells were then incubated in the absence or the presence of increasing concentrations of ZvAD-FMK, an irreversible caspase inhibitor for 1 additional day. Cells were incubated for at least 10 minutes in a labeling solution (10 mM HEPES, 140 mM NaCl and 6 mM CaCl2) containing 2 μg/ml Hoechst 33342 (blue channel; Molecular Probes/Invitrogen Corp., Natick, Mass.), 500 times diluted Annexin V-Fluos (green channel; Roche Applied Science, Indianapolis, Ind.) and 1 μg/ml propidium iodide (red channel; Roche Applied Science). High content image acquisition and analysis were carried out using a Beckman Coulter IC100 Cytometer. The program was set to take four images per well. […] Images were processed and numbers of positive cells for each channel and each condition were determined using Cytoshop 2.1 software (Beckman Coulter, Inc.). […]

T1 sequence (P08581 1038-1346): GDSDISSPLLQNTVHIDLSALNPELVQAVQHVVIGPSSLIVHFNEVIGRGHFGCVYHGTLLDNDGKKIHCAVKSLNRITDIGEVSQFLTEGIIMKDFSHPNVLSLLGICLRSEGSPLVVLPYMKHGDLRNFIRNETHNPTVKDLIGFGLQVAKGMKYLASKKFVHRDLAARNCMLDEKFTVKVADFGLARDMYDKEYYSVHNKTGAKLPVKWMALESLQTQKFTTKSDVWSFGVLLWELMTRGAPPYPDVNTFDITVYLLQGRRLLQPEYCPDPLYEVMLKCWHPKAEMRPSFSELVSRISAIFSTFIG

SMILES	IC50 (HT29 cells [1]) [nM]	melting point [°C]	IC50 [2] [nM]	levels of cell death in met siRNA transfected cells (HT29 cells [3])
O=C1NC(=O)[C@@H](c2c[nH]c3ccccc23)[C@@H]1Cc1cn2c3c(cccc13)CCC2 (racemic) [Example 6, (±)-trans-3-(5,6-dihydro-4H-pyrrolo[3,2,1-ij]quinolin-1-ylmethyl)-4-(1H-indol-3-yl)-pyrrolidine-2,5-dione]	1000 to 10000	215 to 218	–	–
O=C1NC(=O)[C@H](c2c[nH]c3ccccc23)[C@@H]1C(=O)c1cn2c3c(cccc13)CCC2 (racemic) [Example 9, (±)-cis-3-(5,6-dihydro-4H-pyrrolo[3,2,1-ij]quinoline-1-carbonyl)-4-(1H-indol-3-yl)-pyrrolidine-2,5-dione]	1000 to 10000	283 to 285	≥ 10000	–
O=C1NC(=O)[C@@H](c2cn3c4c(cccc24)CC3)[C@@H]1c1c[nH]c2ccccc12 (racemic) [Example 33, (±)-trans-3-(4,5-dihydro-pyrrolo[3,2,1-hi]indol-1-yl)-4-(1H-indol-3-yl)-pyrrolidine-2,5-dione]	≤ 1000	144 to 148	≥ 10000	–
COC(=O)C[C@H](NC(=O)[C@H](C)NC(=O)[C@@H](NC(=O)OCc1ccccc1)C(C)C)C(=O)CF [ZvAD-FMK] (Cbz-Val-Ala-Asp(OMe)-CH2F)	–	–	–	decreased the levels of cell death

Continued, in another order:

IC50 (HT29 cells [1]) [nM]	melting point [°C]	IC50 [2] [nM]	SMILES	levels of cell death in met siRNA transfected cells (HT29 cells [3])
≤ 1000	141 to 145	≥ 10000	O=C1NC(=O)[C@@H](c2cc3c4c(ccn4CCC3)c2)[C@H]1c1c[nH]c2ccccc12 (racemic) [Example 16]	–
≤ 1000	195 to 200	–	O=C1NC(=O)[C@@H](c2c[nH]c3ccc(Br)cc23)[C@@H]1c1cc2c3c(ccn3CCC2)c1 (racemic) [Example 19, (±)-trans-3-(5-bromo-1H-indol-3-yl)-4-(5,6-dihydro-4H-pyrrolo[3,2,1-ij]quinolin-8-yl)-pyrrolidine-2,5-dione]	–
≤ 1000	209 to 212	–	O=C1NC(=O)[C@@H](c2ccccc2Cl)[C@@H]1c1cc2c3c(ccn3CCC2)c1 (racemic) [Example 22, (±)-trans-3-(2-chloro-phenyl)-4-(5,6-dihydro-4H-pyrrolo[3,2,1-ij]quinolin-8-yl)-pyrrolidine-2,5-dione]	–
≤ 1000	–	–	COc1cccc([C@@H]2C(=O)NC(=O)[C@H]2c2cc3c4c(ccn4CCC3)c2)c1 (racemic) [Example 25, (±)-trans-3-(5,6-dihydro-4H-pyrrolo[3,2,1-ij]quinolin-8-yl)-4-(3-methoxy-phenyl)-pyrrolidine-2,5-dione]	–
